“And” between values parts separate entries of the source, which are not always exact repeats. Identical values can stand only once.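 Compound exposure: 48 hours, 5 concentrations, 96-well plates. At the GI50, growth is halved. TGI marks complete inhibition of growth.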
Experiments:
Test in all cases: inhibition of tumour cell growth, NCI panel, 48 h
SK-OV-3 ovarian = test system: SK-OV-3 ovarian
SF-268 CNS = test system: SF-268 CNS
MCF7 breast = test system: MCF7 breast
A549 NSCLC = test system: A549 NSCLC
MDA-MB-231 breast = test system: MDA-MB-231 breast
SK-MEL-28 melanoma = test system: SK-MEL-28 melanoma
HS 578T breast = test system: HS 578T breast
SF-295 CNS = test system: SF-295 CNS
HOP-92 NSCLC = test system: HOP-92 NSCLC
EKVX NSCLC = test system: EKVX NSCLC

Row | Structure (SMILES) | GI50 (SK-OV-3 ovarian) [µM] | TGI (SK-OV-3 ovarian) [µM] | GI50 (SF-268 CNS) [nM] | TGI (SF-268 CNS) [µM] | GI50 (MCF7 breast) [nM] | TGI (MCF7 breast) [µM] | GI50 (A549 NSCLC) [nM] | TGI (A549 NSCLC) [µM] | GI50 (MDA-MB-231 breast) [nM] | TGI (MDA-MB-231 breast) [µM] | GI50 (SK-MEL-28 melanoma) [nM] | TGI (SK-MEL-28 melanoma) [µM] | GI50 (HS 578T breast) [nM] | TGI (HS 578T breast) [µM] | TGI (SF-295 CNS) [µM] | TGI (HOP-92 NSCLC) [µM] | GI50 (SF-295 CNS) | GI50 (HOP-92 NSCLC) [nM] | TGI (EKVX NSCLC) [µM] | GI50 (EKVX NSCLC) [µM]
1 | COc1ccc(-c2nc(-c3nc4ccc(F)cc4[nH]3)cc3c2[nH]c2ccccc23)cc1 | 4 | > 100 | 3240 | > 100 | 2530 | > 100 | 2210 | 7.5 | 2300 | 8.95 | 3400 | > 100 | 2820 | > 100 | – | – | – | – | – | –
2 | O=C(NC1CCCCC1)c1c(O)[nH]c(=S)[nH]c1=O | – | > 100 | – | > 100 | – | – | – | > 100 | – | – | – | > 100 | – | – | > 100 | > 100 | – | – | – | –
3 | CC(=O)[CH-]C(=O)c1ccccc1.CC(=O)[CH-]C(=O)c1ccccc1.[Nd+3].[OH-].[OH3+] | > 100 | > 100 | > 100000 | > 100 | – | – | > 100000 | > 100 | – | – | > 100000 | > 100 | – | – | > 100 | > 100 | > 100 µM | > 100000 | – | –
4 | O=c1/c(=C/c2cccc3ccccc23)sc2nc3ccccc3n12 | – | – | – | > 100 | – | – | – | > 100 | – | – | – | > 100 | – | – | > 100 | > 100 | – | – | > 100 | –
5 | COc1ccc(CC(=O)c2cc(OC)c(OC)cc2C)cc1OC | – | > 100 | – | > 100 | – | – | – | > 100 | – | – | – | > 100 | – | – | > 100 | – | – | – | > 100 | –
6 | CCOC(=O)C1NCCc2c1[nH]c1ccccc21 (stereo unspecified) | – | > 10 | – | > 10 | – | > 10 | – | > 10 | – | > 10 | – | > 10 | – | – | > 10 | > 10 | – | – | > 10 | –
7 | Nc1nc2ncn(CCO)c2c(=O)[nH]1 | – | > 100 | – | > 100 | – | – | – | > 100 | – | – | – | > 100 | – | – | > 100 | > 100 | – | – | > 100 | –
8 | C=C1C(=O)O[C@H]2[C@H]1CC/C(COC(=O)OCCCCCOC(=O)OC/C1=C/CC[C@@]3(C)O[C@H]3[C@H]3OC(=O)C(=C)[C@@H]3CC1)=C\CC[C@@]1(C)O[C@@H]21 | 2.93 | 9.67 | 1680 | 3.99 | – | – | 2630 | 7.42 | 256 | 0.803 | 252 | 0.842 | 2480 | 19.8 | 5.88 | 2.94 | 2.12 µM | 1260 | 3.32 | 1.12
9 | CC(=O)O[C@]1(C(C)=O)CC[C@H]2[C@@H]3C[C@H](C)C4=CC(=O)C=C[C@]4(C)[C@@]3(F)[C@@H](O)C[C@@]21C | – | 51 | – | > 100 | – | – | – | > 100 | – | – | – | > 100 | – | – | > 100 | > 100 | – | – | > 100 | –
10 | CCCCN(CC)C(=O)C(=O)C1C(=O)Nc2ccccc2S1=O (stereo unspecified) | – | > 100 | – | > 100 | – | – | – | > 100 | – | – | – | > 100 | – | – | – | > 100 | – | – | > 100 | –
11 | CS(=O)(=O)C1S(=O)(=O)OCCOS1(=O)=O | – | > 100 | – | > 100 | – | – | – | > 100 | – | – | – | > 100 | – | – | > 100 | > 100 | – | – | > 100 | –
12 | COc1ccc(CNc2cc(OC)cc(OC)c2)cc1 | – | > 100 | – | > 100 | – | – | – | > 100 | – | – | – | > 100 | – | – | > 100 | > 100 | > 100 µM and 38.2 µM | – | > 100 | –
13 | OCC(O)CC[CH2][Sn]([c]1ccccc1)([c]1ccccc1)[c]1ccccc1 (stereo unspecified) | 19.7 | 34.1 | – | – | – | – | 10700 | 22.6 | – | – | – | – | – | – | 23.3 | 24 | 11.3 µM | 10900 | 31.7 | 16.5
14 | N#C/C(=C\c1ccc(CP(=O)(O)O)cc1)C(N)=O | – | > 100 | – | > 100 | – | – | – | > 100 | – | – | – | > 100 | – | – | > 100 | > 100 | – | – | > 100 | –
15 | O=C(O)CSc1n[nH]c(/C=C/c2ccccc2)n1 | – | > 100 | – | > 100 | – | – | – | > 100 | – | – | – | > 100 | – | – | > 100 | > 100 | – | – | > 100 | –
16 | COc1cc2c(-c3nc4cc(Cl)c(F)cc4s3)cc(=O)oc2c(C)c1OC | 1.63 | 3.03 | 1140 | 3.24 | – | – | – | – | – | – | 1810 | 3.49 | – | – | 2.34 | 2.16 | 1.01 µM | 498 | – | –
17 | Cc1c(/C=C2\CC/C(=C\c3[nH]c(C(=O)OC(C)(C)C)c(C)c3C)C2=O)[nH]c(C(=O)OC(C)(C)C)c1C | – | > 100 | – | > 100 | – | – | – | > 100 | – | – | – | – | – | – | > 100 | > 100 | – | – | > 100 | –

Source: PubChem BioAssay (NCI)
